Data: PMC3954873, “Enhanced Thermal Stability and Hydrolytic Ability of Bacillus subtilis Aminopeptidase by Removing the Thermal Sensitive Domain in the Non-Catalytic Region” (PLoS ONE, 2014)

Legend:
BSAP = target: T1, BSAP (Bacillus subtilis, UniProt P25152); experiment: steady-state hydrolysis kinetics, non-linear regression; format: biochemical; conditions: free enzyme; assay as in previous study, conditions not printed here
T1 construct: gene ywaD; host B. subtilis WB600; purified as in previous study
T1 sequence (P25152 32-455): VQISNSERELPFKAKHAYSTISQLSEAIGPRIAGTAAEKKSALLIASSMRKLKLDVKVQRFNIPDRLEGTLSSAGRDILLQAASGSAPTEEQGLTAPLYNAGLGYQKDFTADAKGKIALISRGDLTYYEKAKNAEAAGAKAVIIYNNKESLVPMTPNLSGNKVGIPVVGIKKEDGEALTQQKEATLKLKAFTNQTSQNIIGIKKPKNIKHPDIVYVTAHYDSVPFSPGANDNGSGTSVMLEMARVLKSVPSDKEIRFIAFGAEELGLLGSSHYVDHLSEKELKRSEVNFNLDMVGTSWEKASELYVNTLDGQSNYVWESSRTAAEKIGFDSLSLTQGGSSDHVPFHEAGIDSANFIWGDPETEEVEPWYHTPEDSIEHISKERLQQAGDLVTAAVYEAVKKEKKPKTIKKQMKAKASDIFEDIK
Description: steady-state hydrolysis kinetics, non-linear regression on BSAP

BSAP-ΔPA = target: T2, BSAP-ΔPA (Bacillus subtilis, UniProt P25152, DEL101-225, form not given); experiment: as above; format: biochemical; conditions: free enzyme; assay as in previous study, conditions not printed here
T2 construct: gene ywaD; protease-associated domain (101-225) deleted by inverse PCR; 330 residues before signal peptide removal; plasmid PMA5, host B. subtilis WB600; purified from culture supernatant
T2 sequence (P25152 other isoform, or with tags, fused parts or gaps DEL101-225): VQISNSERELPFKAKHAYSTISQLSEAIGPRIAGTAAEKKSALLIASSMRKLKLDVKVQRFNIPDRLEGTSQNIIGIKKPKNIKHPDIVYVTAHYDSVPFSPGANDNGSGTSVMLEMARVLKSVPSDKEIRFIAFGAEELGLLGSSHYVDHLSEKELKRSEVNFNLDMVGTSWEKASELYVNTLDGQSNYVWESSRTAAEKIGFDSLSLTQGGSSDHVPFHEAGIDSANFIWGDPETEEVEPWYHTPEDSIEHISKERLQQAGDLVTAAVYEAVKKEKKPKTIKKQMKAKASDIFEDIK
Description: steady-state hydrolysis kinetics, non-linear regression on BSAP-ΔPA

K m (BSAP): 2.52 ± 0.11 mmol | K m (BSAP-ΔPA): 2.43 ± 0.23 mmol
SMILES: CC(C)C[C@H](N)C(=O)Nc1ccc([N+](=O)[O-])cc1 [Leu-pNA]
